Structures can show the parent of a compound that is named as a salt.
Tests used:
[1] = molecular target: T1, MASP-2 (CCP1-CCP2-SP) (Homo sapiens, UniProt O00187); assay: Enzymatic assay for MASP-2 inhibitory activity (fluorogenic substrate); assay type: biochemical
T1 construct: 15 μL of Enzyme MASP-2 (CCP1-CCP2-SP) in Assay Buffer
Method: The MASP-2 assay utilizes a fluorogenic substrate, based on the cleavage site for its natural substrate C2. The assay was run at room temperature in an assay buffer containing 20 mM HEPES, pH 7.4, 140 mM NaCl and 0.1% Tween 20. Assay parameters were adjusted such that the assay was linear with respect to time, enzyme, and substrate concentrations. Under the optimized assays conditions, IC50 values were equivalent to Ki values, except in the few cases of “tight binding” inhibitors. Cases of “tight binding” or possible “slow binding” inhibitors were handled by the methods described in Copeland R. A. (2013) Evaluation of Enzyme Inhibitors in Drug Discovery. 2nd Ed., John Wiley and Sons, Inc., Chapters 5-7.
The MASP-2 assay protocol was carried out as follows. Test compounds were serially diluted in DMSO and then 100 nL of each dilution was transferred to the assay plate(s). 10 μL of Assay Buffer was added, followed by 15 μL of Enzyme MASP-2 (CCP1-CCP2-SP) in Assay Buffer. 15 μL of Substrate in Assay Buffer was then added and the mixture was mixed to start the reaction. After 20 min at room temperature, 15 μL of a stop solution (0.1 M acetic acid) was added, the sample was mixed, and the plates were read on a SpectraMax i3x Microplate Reader with the data exported as an Excel file. Each assay plate included a “no inhibitor” (DMSO only) control, a “no enzyme” control, and a reference inhibitor control. % Activity values=100*(average test comp. fluorescence−average “no enzyme” fluorescence)/(average “DMSO only” fluorescence−average “no enzyme” fluorescence). IC50 and Ki replicate values were very reproducible, with values well within ±2-fold.

[2] = molecular target: T2, human α-thrombin (Homo sapiens, UniProt P00734); assay: Enzymatic assay for thrombin (fluorogenic peptide substrate Boc-VPR-AMC); assay type: biochemical
T2 construct: enzyme (human α-thrombin (BioPharm® Lab.)) in assay buffer; purchased BioPharm® Lab
Method: The thrombin assay utilizes a fluorogenic peptide substrate (Boc-VPR-AMC (R&D Systems) and was run at room temperature in an assay buffer containing 20 mM Hepes, pH 7.4, 140 mM NaCl and 0.1% Tween 20. Assay parameters were adjusted such that the assay was linear with respect to time, enzyme, and substrate concentrations. Under these optimized assays conditions, IC50 values were equivalent to Ki values, except in a few cases of “tight binding” inhibitors. Cases of “tight binding” or possible “slow binding” inhibitors were handled by the methods described in Copeland R. A. (2013) Evaluation of Enzyme Inhibitors in Drug Discovery. 2nd Ed. John Wiley and Sons, Inc., Chapters 5-7.
The thrombin assay protocol was carried out as follows. Test compounds were serially diluted in DMSO and then 100 nL of each dilution was transferred to the assay plate(s). 10 μL of Assay Buffer was added, followed by 15 μL of enzyme (human α-thrombin (BioPharm® Lab.)) in assay buffer. 15 μL of substrate in assay buffer was then added and the sample mixed to start the reaction. After 20 min at room temperature, 15 μL of a stop solution (0.1 M acetic acid) was added, the sample was mixed, and the plates were read on a SpectraMax® i3x Microplate Reader with the data exported as Excel files. Each assay plate included a “no inhibitor” (DMSO only) control, a “no enzyme” control, and a reference inhibitor control. % Activity values=100*(ave. test comp. fluorescence−ave. “no enz” fluorescence)/(ave. “DMSO only” fluorescence−ave. “no enz” fluorescence). IC50 and Ki values were very reproducible, with values falling well within ±2-fold.

T1 sequence (O00187 445-686 limits assumed): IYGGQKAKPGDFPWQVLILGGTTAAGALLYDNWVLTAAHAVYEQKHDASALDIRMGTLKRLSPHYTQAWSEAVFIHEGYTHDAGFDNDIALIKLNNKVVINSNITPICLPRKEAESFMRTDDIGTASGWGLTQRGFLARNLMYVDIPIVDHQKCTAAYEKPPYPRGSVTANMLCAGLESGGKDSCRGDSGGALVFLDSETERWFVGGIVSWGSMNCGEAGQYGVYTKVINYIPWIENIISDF
T1 sequence (O00187 287-444 partner limits assumed): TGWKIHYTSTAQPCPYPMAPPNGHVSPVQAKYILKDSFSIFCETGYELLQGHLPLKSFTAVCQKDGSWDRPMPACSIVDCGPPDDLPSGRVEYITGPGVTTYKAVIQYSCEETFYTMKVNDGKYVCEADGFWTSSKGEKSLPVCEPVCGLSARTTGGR

Compound	Ki [1] [nM]	Ki [2] [nM]
Cc1ccc(F)c(CNc2nc(Cl)c3n(c2=O)[C@H](C(=O)NCc2ccc(N)nc2C)CC3)c1 [Compound 20, (S)-N-((6-amino-2-methylpyridin-3-yl)methyl)-1-chloro-3-((2-fluoro-5-methylbenzyl)amino)-4-oxo-4,6,7,8-tetrahydropyrrolo[1,2-a]pyrazine-6-carboxamide]	< 500	500 to 2500
Cc1cc(CNc2nc(Cl)c3n(c2=O)[C@H](C(=O)NCc2cc4cnccc4[nH]2)CC3)cc(C(F)(F)F)c1 [Compound 23, (S)-N-((1H-pyrrolo[3,2-c]pyridin-2-yl)methyl)-1-chloro-3-((3-methyl-5-(trifluoromethyl)benzyl)amino)-4-oxo-4,6,7,8-tetrahydropyrrolo[1,2-a]pyrazine-6-carboxamide]	< 500	> 25000
Cc1cc(C)cc(CNc2nc(Cl)c3n(c2=O)[C@H](C(=O)NCc2ccc(N)nc2C)CC3)c1 [Compound 24, trifluoroacetate]	< 500	2500 to 10000
O=C(NCc1cc2cnccc2[nH]1)[C@@H]1CCc2c(Cl)nc(NCc3cccc(F)c3)c(=O)n21 [Compound 25, (S)-N-((1H-pyrrolo[3,2-c]pyridin-2-yl)methyl)-1-chloro-3-((3-fluorobenzyl)amino)-4-oxo-4,6,7,8-tetrahydropyrrolo[1,2-a]pyrazine-6-carboxamide]	< 500	10000 to 25000
Cc1cc(C)cc(CNc2nc(Cl)c3n(c2=O)[C@H](C(=O)NCc2cc4c(s2)CNC4)CC3)c1 [Compound 31, (S)-1-chloro-N-((5,6-dihydro-4H-thieno[2,3-c]pyrrol-2-yl)methyl)-3-((3,5-dimethylbenzyl)amino)-4-oxo-4,6,7,8-tetrahydropyrrolo[1,2-a]pyrazine-6-carboxamide]	< 500	2500 to 10000
O=C(NCc1cc2c(s1)CNC2)[C@@H]1CCc2c(Cl)nc(NCc3ccccc3)c(=O)n21 [Compound 35]	< 500	2500 to 10000
Cc1cc(C)cc(CNc2ncc3n(c2=O)[C@H](C(=O)NCc2ccc(N)nc2C)CC3)c1 [Compound 36, (S)—N-((6-amino-2-methylpyridin-3-yl)methyl)-3-((3,5-dimethylbenzyl)amino)-4-oxo-4,6,7,8-tetrahydropyrrolo[1,2-a]pyrazine-6-carboxamide]	< 500	< 500
Cc1ccc(CNc2ncc3n(c2=O)[C@H](C(=O)NCc2ccc(N)nc2C)CC3)cc1C [Compound 38, (S)-N-((6-amino-2-methylpyridin-3-yl)methyl)-3-((3,4-dimethylbenzyl)amino)-4-oxo-4,6,7,8-tetrahydropyrrolo[1,2-a]pyrazine-6-carboxamide]	< 500	< 500
Cc1cc(C)cc(CNc2ncc3n(c2=O)[C@H](C(=O)NCc2ccccn2)CC3)c1 [Compound 40, (S)-3-((3,5-dimethylbenzyl)amino)-4-oxo-N-(pyridin-2-ylmethyl)-4,6,7,8-tetrahydropyrrolo[1,2-a]pyrazine-6-carboxamide trifluoroacetate]	10000 to 25000	> 25000
Cc1cc(C)cc(CNc2ncc3n(c2=O)[C@H](C(=O)NCc2cc4c(s2)CN(C)C4)CC3)c1 [Compound 42, (S)-3-((3,5-dimethylbenzyl)amino)-N-((5-methyl-5,6-dihydro-4H-thieno[2,3-c]pyrrol-2-yl)methyl)-4-oxo-4,6,7,8-tetrahydropyrrolo[1,2-a]pyrazine-6-carboxamide trifluoroacetate]	< 500	10000 to 25000
Cc1cc(C)cc(CNc2ncc3n(c2=O)[C@H](C(=O)NC(C)c2cc4cnccc4[nH]2)CC3)c1 (stereo partly drawn) [Compound 43, (6S)-N-(1-(1H-pyrrolo[3,2-c]pyridin-2-yl)ethyl)-3-((3,5-dimethylbenzyl)amino)-4-oxo-4,6,7,8-tetrahydropyrrolo[1,2-a]pyrazine-6-carboxamide trifluoroacetate]	< 500	> 25000

Results, then the compound that gave them:

Ki [1] [nM]	Ki [2] [nM]	Compound
< 500	2500 to 10000	Cc1ccc(F)c(CNc2nc(Cl)c3n(c2=O)[C@H](C(=O)NCc2cc4cnccc4[nH]2)CC3)c1 [Compound 21, (S)-N-((1H-pyrrolo[3,2-c]pyridin-2-yl)methyl)-1-chloro-3-((2-fluoro-5-methylbenzyl)amino)-4-oxo-4,6,7,8-tetrahydropyrrolo[1,2-a]pyrazine-6-carboxamide]
< 500	10000 to 25000	COCCCCNc1nc(Cl)c2n(c1=O)[C@H](C(=O)NCc1cc3cnccc3[nH]1)CC2 [Compound 22, (S)-N-((1H-pyrrolo[3,2-c]pyridin-2-yl)methyl)-1-chloro-3-((4-methoxybutyl)amino)-4-oxo-4,6,7,8-tetrahydropyrrolo[1,2-a]pyrazine-6-carboxamide]
< 500	10000 to 25000	Cc1ccc(CNc2nc(Cl)c3n(c2=O)[C@H](C(=O)NCc2cc4cnccc4[nH]2)CC3)cc1C [Compound 26, (S)-N-((1H-pyrrolo[3,2-c]pyridin-2-yl)methyl)-1-chloro-3-((3,4-dimethylbenzyl)amino)-4-oxo-4,6,7,8-tetrahydropyrrolo[1,2-a]pyrazine-6-carboxamide]
< 500	10000 to 25000	Nc1nc2cc(CNC(=O)[C@@H]3CCc4c(Cl)nc(NCc5ccccc5)c(=O)n43)ccc2[nH]1 [Compound 29, trifluoroacetate]
< 500	2500 to 10000	Cc1nc(N)ccc1CNC(=O)[C@@H]1CCc2c(Cl)nc(NCc3ccc(Cl)cc3)c(=O)n21 [Compound 30, trifluoroacetate]
< 500	2500 to 10000	Cc1cccc(CNc2nc(Cl)c3n(c2=O)[C@H](C(=O)NCc2cc4c(s2)CNC4)CC3)c1F [Compound 32, (S)-1-chloro-N-((5,6-dihydro-4H-thieno[2,3-c]pyrrol-2-yl)methyl)-3-((2-fluoro-3-methylbenzyl)amino)-4-oxo-4,6,7,8-tetrahydropyrrolo[1,2-a]pyrazine-6-carboxamide]
< 500	2500 to 10000	Cc1cccc(CNc2nc(Cl)c3n(c2=O)[C@H](C(=O)NCc2cc4c(s2)CNC4)CC3)c1C [Compound 33, (S)-1-chloro-N-((5,6-dihydro-4H-thieno[2,3-c]pyrrol-2-yl)methyl)-3-((2,3-dimethylbenzyl)amino)-4-oxo-4,6,7,8-tetrahydropyrrolo[1,2-a]pyrazine-6-carboxamide]
< 500	2500 to 10000	O=C(NCc1cc2c(s1)CNC2)[C@@H]1CCc2c(Cl)nc(NCc3cccc(C(F)F)c3)c(=O)n21 [Compound 34, (S)-1-chloro-3-((3-(difluoromethyl)benzyl)amino)-N-((5,6-dihydro-4H-thieno[2,3-c]pyrrol-2-yl)methyl)-4-oxo-4,6,7,8-tetrahydropyrrolo[1,2-a]pyrazine-6-carboxamide]
< 500	< 500	Cc1cc(CNc2ncc3n(c2=O)[C@H](C(=O)NCc2ccc(N)nc2C)CC3)cc(C(F)(F)F)c1 [Compound 37, (S)-N-((6-amino-2-methylpyridin-3-yl)methyl)-3-((3-methyl-5-(trifluoromethyl)benzyl)amino)-4-oxo-4,6,7,8-tetrahydropyrrolo[1,2-a]pyrazine-6-carboxamide]
< 500	2500 to 10000	COc1cccc(CNc2ncc3n(c2=O)[C@H](C(=O)NCc2cc4cnccc4[nH]2)CC3)c1 [Compound 39, (S)-N-((1H-pyrrolo[3,2-c]pyridin-2-yl)methyl)-3-((3-methoxybenzyl)amino)-4-oxo-4,6,7,8-tetrahydropyrrolo[1,2-a]pyrazine-6-carboxamide trifluoroacetate]

Source: patent publication US20250122225A1, “MASP-2 INHIBITORS AND METHODS OF USE” (Omeros Corporation, priority 2023, published 2025)
